From ChEMBL document CHEMBL1201862, “PubChem BioAssay data set” (2004)
“And” between values parts separate entries of the source, which are not always exact repeats. Equal entries are not always repeated.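 Grown in 96-well plates, cells were treated for 48 hours with each compound at five concentrations. Insufficient inhibition: endpoint recorded as highest concentration tested. Here, GI50 denotes the concentration required for 50% inhibition of growth.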 The source made the active and inactive calls. Cut-off read from the data, not from the text of the source: active = GI50 up to about 1.1 µM and inactive = higher.

Assays:
Assay in all cases: NCI tumour cell line growth inhibition, 48 h
DU-145 = system: DU-145
SK-OV-3 = system: SK-OV-3
M14 = system: M14
BT-549 = system: BT-549
CAKI-1 = system: CAKI-1
MDA-N = system: MDA-N
NCI/ADR-RES = system: NCI/ADR-RES
OVCAR-3 = system: OVCAR-3
SNB-75 = system: SNB-75
HCC 2998 = system: HCC 2998
Malme-3M = system: Malme-3M
Hs-578T = system: Hs-578T
SN12C = system: SN12C
SF-268 = system: SF-268
RPMI-8226 = system: RPMI-8226
TK-10 = system: TK-10
NCI-H522 = system: NCI-H522
SK-MEL-28 = system: SK-MEL-28
OVCAR-8 = system: OVCAR-8
KM12 = system: KM12
ACHN = system: ACHN
MDA-MB-435 = system: MDA-MB-435
IGROV-1 = system: IGROV-1
NCI-H226 = system: NCI-H226
SF-295 = system: SF-295
UACC-257 = system: UACC-257
MCF7 = system: MCF7
HT-29 = system: HT-29
SW-620 = system: SW-620
T47D = system: T47D
RXF 393 = system: RXF 393
NCI-H23 = system: NCI-H23
MOLT-4 = system: MOLT-4
SNB-19 = system: SNB-19
HCT-116 = system: HCT-116
COLO 205 = system: COLO 205
SF-539 = system: SF-539
LOX IMVI = system: LOX IMVI
NCI-H460 = system: NCI-H460
PC-3 = system: PC-3
UO-31 = system: UO-31
786-0 = system: 786-0
SK-MEL-2 = system: SK-MEL-2
OVCAR-5 = system: OVCAR-5
HOP-62 = system: HOP-62
U-251 = system: U-251
OVCAR-4 = system: OVCAR-4
UACC-62 = system: UACC-62
SK-MEL-5 = system: SK-MEL-5
EKVX = system: EKVX
HL-60 = system: HL-60
HCT-15 = system: HCT-15
CCRF-CEM = system: CCRF-CEM
MDA-MB-231 = system: MDA-MB-231
A549 = system: A549
HOP-92 = system: HOP-92

Measured: GI50

CC(=O)c1c(-c2ccc(Cl)cc2)c(C#N)c(=S)n(C2OC(CO)C(O)C(O)C2O)c1-c1ccccc1 (stereo not given)
inactive: DU-145 > 100 µM and > 93.3 µM | SK-OV-3 > 100 µM | M14 > 100 µM | BT-549 > 100 µM | CAKI-1 45.2 µM and > 89.1 µM | MDA-N 80.7 µM and 48.2 µM | NCI/ADR-RES > 100 µM and 98.9 µM | OVCAR-3 > 80.4 µM and 64.9 µM | SNB-75 14.7 µM | HCC 2998 > 100 µM and > 83.8 µM | Malme-3M > 100 µM | Hs-578T > 100 µM | SN12C > 100 µM and > 85.7 µM | SF-268 89.3 µM and 61.5 µM | RPMI-8226 31.9 µM | TK-10 > 100 µM | NCI-H522 > 100 µM and 53.8 µM | SK-MEL-28 82.2 µM | OVCAR-8 > 100 µM and > 57.3 µM | KM12 > 100 µM and > 68.9 µM | ACHN 55.2 µM and 45.5 µM | MDA-MB-435 77.6 µM | IGROV-1 62.8 µM | NCI-H226 61.4 µM | SF-295 > 100 µM and 70.6 µM | UACC-257 > 100 µM | MCF7 > 100 µM and > 71 µM | HT-29 > 100 µM and 52.1 µM | SW-620 59.6 µM | T47D > 82.6 µM | RXF 393 83.4 µM and 75.5 µM | NCI-H23 > 100 µM

O=C1NC(=O)C(CC(C(=O)C(=O)Nc2ccccc2Cl)C(=O)c2ccc3ccccc3c2)C(=O)N1 (stereo not given)
> 100 µM: HCT-15
inactive: MOLT-4 > 100 µM | SNB-19 > 100 µM | HCT-116 > 100 µM | DU-145 > 100 µM | COLO 205 > 100 µM | SK-OV-3 > 100 µM | SF-539 > 100 µM | LOX IMVI > 100 µM | NCI-H460 > 100 µM | M14 > 100 µM | PC-3 > 100 µM | BT-549 > 100 µM | UO-31 63.7 µM | CAKI-1 > 100 µM | MDA-N > 100 µM | 786-0 > 100 µM | NCI/ADR-RES > 100 µM | SK-MEL-2 > 100 µM | OVCAR-3 > 100 µM | SNB-75 > 100 µM | HCC 2998 > 100 µM | OVCAR-5 > 100 µM | HOP-62 > 100 µM | Hs-578T > 100 µM | SN12C > 100 µM | U-251 > 100 µM | SF-268 > 100 µM | TK-10 > 100 µM | NCI-H522 > 100 µM | OVCAR-4 > 100 µM | SK-MEL-28 > 100 µM | OVCAR-8 > 100 µM | KM12 > 100 µM | ACHN > 100 µM | MDA-MB-435 > 100 µM | UACC-62 > 100 µM | SK-MEL-5 > 100 µM | IGROV-1 > 100 µM | NCI-H226 > 100 µM | EKVX > 100 µM | SF-295 > 100 µM | HL-60 > 100 µM | UACC-257 > 100 µM | MCF7 > 100 µM | HT-29 > 100 µM | SW-620 > 100 µM | CCRF-CEM > 100 µM | RXF 393 > 100 µM | MDA-MB-231 > 100 µM | A549 > 100 µM | HOP-92 61.9 µM | NCI-H23 > 100 µM
